One compound from ChEMBL document CHEMBL5215006, “Antitumor Activity of Piceamycin by Upregulation of N-Myc Downstream-Regulated Gene 1 in Human Colorectal Cancer Cells” (J Nat Prod, 2022) can be followed below.

The nature of this series: Toxicity in Balb/c mouse xenografted with human HCT-116 cells assessed as body weight change at 10 mg/kg,ip administrated for 18 days by 3 times per week. It is filed as organism-based. The conditions noted are these: in vivo, 432 h, time 18 day. On the technique in general: A xenograft is tissue or cells of one species grown in another, often human tumour cells in immunodeficient mice.

As to `CCc1c2c(nc3ccc(OC(=O)N4CCC(N5CCCCC5)CC4)cc13)-c1cc3c(c(=O)n1C2)COC(=O)[C@]3(O)CC` [IRINOTECAN], the Activity result is given as “Toxic”.
